≈ marks a conversion by molar mass, not a printed value.
What was measured:
Assay in all cases: MIC, agar dilution test/Isosensitest agar
Details in all cases: unit assumed
E. coli Neumann = type: cell-based, Escherichia coli
Description: (§1) |(agar dilution test/Isosensitest agar)

Staphylococcus FK 422 = type: cell-based
Description: as §1

Klebsiella 8085 = type: cell-based
Description: as §1

Proteus vulgaris 1017 = type: cell-based
Description: as §1

Providencia 12012 = type: cell-based
Description: as §1

Pseudomonas Ellsworth = type: cell-based
Description: as §1

Serratia 16040 = type: cell-based
Description: as §1

Streptococcus 27101 = type: cell-based
Description: as §1

With Cc1oc(=O)oc1CN1CCN(c2cc3c(cc2F)c(=O)c(C(=O)O)cn3C2CC2)CC1 [Example 1, 1-Cyclopropyl-6-fluoro-1,4-dihydro-7-[4-(5-methyl-2-oxo-1,3-dioxol-4-yl-methyl)-1-piperazinyl]-4-oxo-3-quinolinecarboxylic acid] the MIC (E. coli Neumann) was ≤ 0.015 µg/mL, the MIC (Staphylococcus FK 422) was 0.25 µg/mL (≈ 0.564 µM) and the MIC (Klebsiella 8085) was ≤ 0.015 µg/mL. The MIC (Proteus vulgaris 1017) was ≤ 0.015 µg/mL, the MIC (Providencia 12012) was 0.03 µg/mL (≈ 0.0677 µM) and the MIC (Pseudomonas Ellsworth) was 0.06 µg/mL (≈ 0.135 µM). For the same compound, the MIC (Serratia 16040) was 8 µg/mL (≈ 18 µM) and the MIC (Streptococcus 27101) was 0.5 µg/mL (≈ 1.13 µM).

— patent publication US4703047A, “1-Cyclopropyl-1,4-dihydro-4-oxo-7-(4-(2-oxo-1,3-dioxol-4-yl- methyl)-1-piperazinyl)-3-quinolinecarboxylic acid antibacterial agents” (Bayer Aktiengesellschaft, priority 1985, dated 1987)
